The record followed here is patent US12240854B2, “TRAF 6 inhibitors” (Helmholtz Zentrum München - Deutsches Forschungszentrum für …, priority 2018, dated 2025).

For this experiment, the target named is T1, TRAF6WTStrepII-Ubc13FH interaction (Homo sapiens, UniProt Q9Y4K3).
T1 construct: RING-Zincfinger1 (RZ1) domain (residues 50-159) of human TRAF6 wildtype; made in house; host or cells: E. coli BL21 codon plus RIPL
T1 sequence (Q9Y4K3 with tags, fused parts or gaps): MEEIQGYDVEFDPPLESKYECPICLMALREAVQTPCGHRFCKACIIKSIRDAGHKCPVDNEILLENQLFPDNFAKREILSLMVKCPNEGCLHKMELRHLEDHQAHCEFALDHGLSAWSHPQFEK
The experiment in a line: ALPHAScreen TRAF6-Ubc13 interaction assay. In kind it is binding. The conditions noted are these: TRAF6 100 nM, Ubc13FH 75 nM; class symbols; read-out: IC50 Alphascreen (inhibition of TRAF6-UBC13 interaction). From the text: In order to identify small molecules that specifically target the RZ1 domain of TRAF6 and thereby prevent its binding to Ubc13, the ALPHAScreen technology (PerkinElmer) was chosen to detect TRAF6WTStrepII-Ubc13FH interaction in High-Throughput-Screenings as well as Structure Activity Relationship (SAR) analysis.
For performance of an automated ALPHAScreen assay, all following components were pre-diluted in ALPHAScreen buffer (1×PBS, 0.5% BSA, 0.01% Tween-20). First, the TRAF6 protein (end concentration 100 nM, 30 μL volume) was added to 384-well-opti-plates involving the MultiFlo dispensing system (BioTek) followed by transfer of the compounds via the Sciclone G3 transfer station (PerkinElmer). After addition of Ubc13FH (end concentration 75 nM, 10 μL volume) with the MultiFlo system and incubation for one hour at room temperature, both beads (Strep-Tactin Alpha Donor beads and Nickel-Chelate acceptor beads; end concentrations 4 μg each, 10 μL volume each) were mixed and added using the MultiFlo system in subdued light. Read-out of the plates occurred after another hour of incubation at room temperature. Statistical parameters including the coefficient of variation, Z′ factor and signal window were calculated to determine the quality of the HTS campaign. To evaluate the efficacy of the compounds, ALPHAScreen units of compound-treated samples were referred to DMSO control treated samples. Thereby, the TRAF6D57K mutant served as the control for minimum signal and was included on every plate of the screening. Compounds that inhibited TRAF6WTStrepII-Ubc13FH by more than 25% were considered as actives. After elimination of ALPHAScreen frequent hitter compounds and His-tag frequent hitters (Schorpp, K., I. Rothenaigner, E. Salmina, et al., Identification of Small-Molecule Frequent Hitters from AlphaScreen High-Throughput Screens. J Biomol Screen, 2014. 19(5): p. 715-26), 178 compounds were defined as primary hits and were subsequently tested in five-point serial dilution assays (2.5-40 μM) in TRAF6WTStrepII-Ubc13FH ALPHAScreen experiments. Only compounds with dose-dependent effects on TRAF6WTStrepII-Ubc13FH (n=27) were taken for further research. For analog testing, all compounds were analyzed in ten-point titration (0.2-100 μM) in TRAF6WTStrepII-Ubc13FH ALPHAScreen experiments. In parallel, the compounds were tested in the ALPHAScreen TruHits Kit (PerkinElmer) to rule out unspecific interference with the ALPHAScreen technology.
Regarding `Cc1nn(-c2ccc3nnc(C(F)(F)F)n3n2)c(C)c1CCC(=O)N1CCN(Cc2ccc(-c3nnn[nH]3)cc2Cl)CC1` [Example 174], the half-inhibitory concentration (IC50) (usually the concentration that gives 50% inhibition) is not above 3 µM.

Turning to `COc1ccc(CN2CCN(C(=O)CCc3c(C)nn(-c4ccc5nnc(C)n5n4)c3C)CC2)cc1` [Example 157], the IC50 was not above 10 µM. Regarding `Cc1nn(-c2ccc3nnc(C)n3n2)c(C)c1CCC(=O)N1CCN(Cc2cccc(C(N)=O)c2)CC1` [Example 151], the IC50 is not above 10 µM. `Cc1nn(-c2ccc3nnc(C)n3n2)c(C)c1CCC(=O)N1CCN(Cc2ccc(Cl)c(Cl)c2)CC1` [Example 135]: the IC50 was not above 3 µM.

In the case of `Cc1nn(-c2ccc3nnc(C)n3n2)c(C)c1CCC(=O)N1CCN(Cc2ccc3oc(=O)ccc3c2)CC1` [Example 166], the IC50 is not above 10 µM. Take `Cc1nn(-c2ccc3nnc(C)n3n2)c(C)c1CCC(=O)N1CCN(Cc2cccc3cccnc23)CC1` [Example 153]: the half-inhibitory concentration (IC50) was not above 3 µM.

In the case of `Cc1nn(-c2ccc3nnc(C(F)(F)F)n3n2)c(C)c1CCC(=O)N1CCN(Cc2cc(F)cc(-c3nnn[nH]3)c2)CC1` [Example 178], the half-maximal inhibitory concentration (IC50) was not above 3 µM. Regarding `Cc1nn(-c2ccc3nnc(C(F)(F)F)n3n2)c(C)c1CCC(=O)N1CCN(Cc2ccc(C#N)cc2Cl)CC1` [Example 189], the concentration for half-maximal inhibition (IC50) was not above 30 µM. In the case of `Cc1nn(-c2ccc3nnc(C)n3n2)c(C)c1CCC(=O)N1CCN(Cc2ccc(C#N)cc2)CC1` [Example 109], the concentration for half-maximal inhibition (IC50) is not above 30 µM.

For the compound `Cc1nn(-c2ccc3nnc(C(F)(F)F)n3n2)c(C)c1CCC(=O)N1CCN(Cc2cccc(C#N)c2C)CC1` [Example 186], the IC50 was not above 10 µM. Turning to `Cc1nn(-c2ccc3nnc(C(F)(F)F)n3n2)c(C)c1CCC(=O)N1CCN(Cc2cc(-c3nnn[nH]3)ccc2Cl)CC1` [Example 172], the half-inhibitory concentration (IC50) was not above 3 µM. Turning to `Cc1nn(-c2ccc3nnc(C)n3n2)c(C)c1CCC(=O)N1CCN(Cc2cccc(NS(C)(=O)=O)c2)CC1` [Example 156], the concentration for half-maximal inhibition (IC50) was not above 10 µM. Regarding `Cc1nn(-c2ccc3nnc(C)n3n2)c(C)c1CCC(=O)N1CCN(Cc2cccc(-c3nn[nH]n3)c2)CC1` [Example 154], the half-maximal inhibitory concentration (IC50) is not above 3 µM. Turning to `Cc1nn(-c2ccc3nnc(C)n3n2)c(C)c1CCC(=O)N1CCN(Cc2cccc3ncccc23)CC1` [Example 138], the IC50 was not above 10 µM.

For `Cc1nn(-c2ccc3nnc(C)n3n2)c(C)c1CCC(=O)N1CCN(Cc2ccc(S(C)(=O)=O)cc2)CC1` [Example 116], the IC50 was not above 3 µM. `Cc1nn(-c2ccc3nnc(C)n3n2)c(C)c1CCC(=O)N1CCN(Cc2ccc(C(=O)O)c(F)c2)CC1` [Example 131]: the half-maximal inhibitory concentration (IC50) is not above 3 µM. For `Cc1nn(-c2ccc3nnc(C)n3n2)c(C)c1CCC(=O)N1CCN(Cc2cc(F)cc(-c3nnn[nH]3)c2)CC1` [Example 177], the IC50 was not above 3 µM.

As to `Cc1nn(-c2ccc3nnc(C)n3n2)c(C)c1CCC(=O)N1CCN(Cc2cccc(-c3nnn[nH]3)c2Cl)CC1` [Example 175], the 50% inhibitory concentration (IC50) is not above 3 µM. For `Cc1nn(-c2ccc3nnc(C)n3n2)c(C)c1CCC(=O)N1CCN(Cc2ccccc2C#N)CC1` [Example 127], the concentration for half-maximal inhibition (IC50) was not above 10 µM. For `Cc1nn(-c2ccc3nnc(C)n3c2)c(C)c1CCC(=O)N1CCN(Cc2ccccc2)CC1` [Example 105], the inhibition (in general, the share of the control response that was lost under treatment) at 100 µM is not below 30%. `Cc1nn(-c2ccc3nnc(C)n3n2)c(C)c1CCC(=O)N1CCN(Cc2cc(-c3nnn[nH]3)ccc2Cl)CC1` [Example 171]: the IC50 was not above 3 µM.

As to `Cc1nn(-c2ccc3nnc(C)n3n2)c(C)c1CCC(=O)N1CCN(Cc2ccc(O)c(Cl)c2)CC1` [Example 123], the IC50 was not above 3 µM. Regarding `Cc1nn(-c2ccc3nnc(C(F)(F)F)n3n2)c(C)c1CCC(=O)N1CCN(Cc2cccc(C#N)c2Cl)CC1` [Example 187], the 50% inhibitory concentration (IC50) is not above 10 µM. The same measure, in the same setting: then `Cc1nn(-c2ccc3nnc(C(F)(F)F)n3n2)c(C)c1CCC(=O)N1CCN(Cc2cc(C#N)ccc2Cl)CC1` [Example 183], with not above 3 µM; and `Cc1nn(-c2ccc3nnc(C)n3n2)c(C)c1CCC(=O)N1CCN(Cc2ccc(C(N)=O)cc2)CC1` [Example 118], with not above 10 µM; and `Cc1nn(-c2ccc3nnc(C)n3n2)c(C)c1CCC(=O)N1CCN(Cc2ccc([N+](=O)[O-])cc2)CC1` [Example 115], with not above 3 µM.

On to `Cc1nn(-c2ccc3nnc(C)n3n2)c(C)c1CCC(=O)N1CCN(Cc2ccc(I)cc2)CC1` [Example 111], for which the IC50 was not above 30 µM. With `Cc1cc(CN2CCN(C(=O)CCc3c(C)nn(-c4ccc5nnc(C)n5n4)c3C)CC2)ccc1[N+](=O)[O-]` [Example 122], the IC50 was not above 3 µM.

`Cc1nn(-c2ccc3nnc(C)n3n2)c(C)c1CCC(=O)N1CCN(Cc2ccc(-c3nnn[nH]3)cc2F)CC1` [Example 169]: the half-maximal inhibitory concentration (IC50) is not above 10 µM. As for `Cc1cccc(CN2CCN(C(=O)CCc3c(C)nn(-c4ccc5nnc(C)n5n4)c3C)CC2)c1` [Example 133], the half-maximal inhibitory concentration (IC50) was not above 10 µM.

Turning to `Cc1nn(-c2ccc3nnc(C)n3n2)c(C)c1CCC(=O)N1CCN(Cc2c(Cl)cccc2Cl)CC1` [Example 142], the IC50 is not above 10 µM. On to `Cc1nn(-c2ccc3nnc(C)n3n2)c(C)c1CCC(=O)N1CCN(Cc2cccc(C(F)(F)F)c2)CC1` [Example 159], for which the 50% inhibitory concentration (IC50) is not above 3 µM.

As to `Cc1nn(-c2ccc3nnc(C)n3n2)c(C)c1CCC(=O)N1CCN(Cc2cccc(C(N)=O)c2)CC1` [Example 100], the inhibition at 100 µM is not below 30%. As to `Cc1cc(C(=O)O)ccc1CN1CCN(C(=O)CCc2c(C)nn(-c3ccc4nnc(C)n4n3)c2C)CC1` [Example 121], the IC50 is not above 3 µM.

On to `Cc1nn(-c2ccc3nnc(C)n3n2)c(C)c1CCC(=O)N1CCN(Cc2ccc3cn[nH]c3c2)CC1` [Example 137], for which the 50% inhibitory concentration (IC50) was not above 10 µM. Same read-out and setting: as for `Cc1nn(-c2ccc3nnc(C(F)(F)F)n3n2)c(C)c1CCC(=O)N1CCN(Cc2ccc(C#N)cc2F)CC1` [Example 190], the figure is not above 3 µM. On to `Cc1nn(-c2ccc3nnc(C)n3n2)c(C)c1CCC(=O)N1CCN(Cc2cc(F)c(O)c(F)c2)CC1` [Example 146], for which the IC50 was not above 3 µM. With `Cc1nn(-c2ccc3nnc(C)n3n2)c(C)c1CCC(=O)NC1CCN(c2ccccc2)CC1` [Example 167], the inhibition at 100 µM was not below 30%. Take `Cc1nn(-c2ccc3nnc(C)n3n2)c(C)c1CCC(=O)N1CCN(Cc2ccc(Cl)cc2)CC1` [Example 143]: the 50% inhibitory concentration (IC50) is not above 30 µM. Regarding `Cc1nn(-c2ccc3nnc(C)n3n2)c(C)c1CCC(=O)N1CCN(Cc2ccc(-c3ccccc3)cc2)CC1` [Example 113], the IC50 was not above 10 µM. The same measure, in the same setting: then `Cc1nn(-c2ccc3nnc(C)n3n2)c(C)c1CCC(=O)N1CCN(Cc2ccc(C#N)cc2F)CC1` [Example 182], with not above 10 µM; and `COC(=O)c1cccc(CN2CCN(C(=O)CCc3c(C)nn(-c4ccc5nnc(C)n5n4)c3C)CC2)c1` [Example 98], with not above 10 µM. Take `Cc1nn(-c2ccc3nnc(C)n3c2)c(C)c1CCC(=O)N1CCC(CCc2ccccc2)CC1` [Example 104]: the inhibition at 100 µM is not below 30%. On to `Cc1nn(-c2ccc3nnc(C)n3n2)c(C)c1CCC(=O)N1CCN(Cc2cccc(I)c2)CC1` [Example 134], for which the IC50 is not above 3 µM.

Take `Cc1ccc(CN2CCN(C(=O)CCc3c(C)nn(-c4ccc5nnc(C)n5n4)c3C)CC2)cc1` [Example 139]: the concentration for half-maximal inhibition (IC50) is not above 30 µM. Turning to `Cc1nn(-c2ccc3nnc(C)n3n2)c(C)c1CCC(=O)N1CCN(Cc2cccc(C3CC3)c2)CC1` [Example 161], the 50% inhibitory concentration (IC50) was not above 3 µM. Turning to `Cc1nn(-c2ccc3nnc(C)n3n2)c(C)c1CCC(=O)N1CCN(Cc2cccc(-c3ccccc3)c2)CC1` [Example 128], the IC50 is not above 10 µM. As for `Cc1nn(-c2ccc3nnc(C)n3n2)c(C)c1CCC(=O)N1CCN(Cc2cc(C#N)ccc2Cl)CC1` [Example 191], the half-inhibitory concentration (IC50) is not above 10 µM. For the compound `Cc1nn(-c2ccc3nnc(C)n3n2)c(C)c1CCC(=O)N1CCN(Cc2ccc(Cl)cc2Cl)CC1` [Example 132], the IC50 was not above 10 µM. For the compound `CC(=O)Nc1ccc(CN2CCN(C(=O)CCc3c(C)nn(-c4ccc5nnc(C)n5n4)c3C)CC2)cc1` [Example 112], the half-maximal inhibitory concentration (IC50) was not above 10 µM.

`Cc1nn(-c2ccc3nnc(C)n3n2)c(C)c1CCC(=O)N1CCN(Cc2ccc(N(C)C)cc2)CC1` [Example 114]: the concentration for half-maximal inhibition (IC50) is not above 10 µM. For `Cc1nn(-c2ccc3nnc(C)n3n2)c(C)c1CCC(=O)N1CCN(Cc2ccc(C(=O)O)cc2)CC1` [Example 97], the IC50 was not above 3 µM.
